Source: the supplement of paper PMC11061612

Legend:
Experiment in all cases: combination Emax (second highest fraction inhibited in the dose matrix, 72 h); higher = more inhibition; extreme values may be limits of the assay
[1] = tested on: JURL-MK1 (Chronic Myelogenous Leukemia)
Outline: (§1)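 Cell lines grown in DMEM/F12 or RPMI with 10% FBS were plated in 1536-well plates and held 24 hours at 37°C, 5% CO2 before 72 hours of exposure to two-drug dose matrices, with DMSO typically at 0.2%. CellTiter-Glo 2.0 luminescence gave viability, which was converted to inhibition. Vehicle wells were set to 0 and blank wells to 1. Combination Emax is the second-highest inhibition in the matrix, and Bliss excess is the observed combination effect minus the expected EA + EB − EA·EB, where EA and EB are the single-agent effects.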

DK-MG (Glioblastoma) = tested on: DK-MG (Glioblastoma)
Outline: as §1

[2] = tested on: MDA-MB-175-VII (Breast Carcinoma)
Outline: as §1

[3] = tested on: SBC-3 (Small Cell Lung Carcinoma)
Outline: as §1

[4] = tested on: COR-L105 (Lung Adenocarcinoma)
Outline: as §1

[5] = tested on: ATN-1 (T-Lymphoblastic Leukemia)
Outline: as §1

[6] = tested on: Daudi (Burkitt's Lymphoma)
Outline: as §1

GCIY (Gastric Carcinoma) = tested on: GCIY (Gastric Carcinoma)
Outline: as §1

[7] = tested on: NCI-H2023 (Non-Small Cell Lung Carcinoma)
Outline: as §1

[8] = tested on: SCC90 (Head and Neck Carcinoma)
Outline: as §1

[9] = tested on: CAL-85-1 (Breast Carcinoma)
Outline: as §1

A375 (Melanoma) = tested on: A375 (Melanoma)
Outline: as §1

[10] = tested on: MRK-nu-1 (Breast Carcinoma)
Outline: as §1

[11] = tested on: TOV-21G (Ovarian Carcinoma)
Outline: as §1

[12] = tested on: SW1463 (Colorectal Carcinoma)
Outline: as §1

[13] = tested on: HT-3 (Cervical Carcinoma)
Outline: as §1

[14] = tested on: GRANTA-519 (B-Cell Non-Hodgkin's Lymphoma)
Outline: as §1

[15] = tested on: C2BBe1 (Colorectal Carcinoma)
Outline: as §1

SK-N-DZ (Neuroblastoma) = tested on: SK-N-DZ (Neuroblastoma)
Outline: as §1

MG-63 (Osteosarcoma) = tested on: MG-63 (Osteosarcoma)
Outline: as §1

Row | Compound | combination Emax [1] | combination Emax (DK-MG (Glioblastoma)) | combination Emax [2] | combination Emax [3] | combination Emax [4] | combination Emax [5] | combination Emax [6] | combination Emax (GCIY (Gastric Carcinoma)) | combination Emax [7] | combination Emax [8] | combination Emax [9] | combination Emax (A375 (Melanoma)) | combination Emax [10] | combination Emax [11] | combination Emax [12] | combination Emax [13] | combination Emax [14] | combination Emax [15] | combination Emax (SK-N-DZ (Neuroblastoma)) | combination Emax (MG-63 (Osteosarcoma))
1 | Cc1cc2ncnn2cc1Nc1ncc2c(n1)n(C1CCOCC1)c(=O)n2C [AZD7648] + C=CCn1c(=O)c2cnc(Nc3ccc(N4CCN(C)CC4)cc3)nc2n1-c1cccc(C(C)(C)O)n1 [AZD1775] (first compound max 10 µM, partner max 1 µM) | 0.99 | 0.43 | 0.38 | 0.576 | 0.492 | 1 | 0.809 | 0.49 | 0.703 | 0.905 | 0.452 | 0.592 | 0.596 | 0.56 | 0.411 | 0.401 | 0.8 | 0.345 | 0.927 | 0.466
2 | COc1cc2ncnc(Nc3ccc(F)c(Cl)c3)c2cc1OCCCN1CCOCC1 [Gefitinib] + CC(C)n1c(=O)n(C)c2cnc3cc(F)c(-c4ccc(OCCCN5CCCCC5)nc4)cc3c21 [AZD1390] (first compound max 10 µM, 7x7, partner max 0.3 µM) | 0.499 | 0.248 | 0.93 | 0.107 | 0.619 | 0.296 | 0.392 | 0.459 | 0.151 | 0.699 | 0.466 | 0.0854 | 0.443 | 0.275 | 0.728 | 0.0187 | 0.201 | 0.288 | 0.19 | 0.202
3 | Cc1cc2ncnn2cc1Nc1ncc2c(n1)n(C1CCOCC1)c(=O)n2C [AZD7648] + CCN(CCO)CCCOc1ccc2c(Nc3cc(CC(=O)Nc4cccc(F)c4)[nH]n3)ncnc2c1 [AZD2811] (first compound max 10 µM, 7x7, partner max 1 µM) | 0.601 | 0.273 | 0.323 | 0.564 | 0.31 | 0.832 | 0.508 | 0.49 | 0.534 | 0.452 | 0.31 | 0.492 | 0.824 | 0.327 | 0.27 | 0.231 | 0.414 | 0.196 | 0.635 | 0.39
4 | CN(CCO)CC[C@H](CSc1ccccc1)Nc1ccc(S(=O)(=O)NC(=O)c2ccc(N3CCC([C@@H](O)c4ccccc4-c4ccc(Cl)cc4)CC3)cc2)cc1S(=O)(=O)C(F)(F)F [AZD4320] + Cc1cc2ncnn2cc1Nc1ncc2c(n1)n(C1CCOCC1)c(=O)n2C [AZD7648] (first compound max 1 µM, 7x7, partner max 10 µM) | 0.827 | 0.261 | 0.274 | 0.276 | 0.253 | 0.778 | 0.22 | 0.609 | 0.318 | 0.448 | 0.337 | 0.134 | 0.697 | 0.209 | 0.185 | 0.0567 | 0.829 | 0.383 | 0.651 | 0.179
5 | Cc1cc2ncnn2cc1Nc1ncc2c(n1)n(C1CCOCC1)c(=O)n2C [AZD7648] + O=C(c1cc(Cc2n[nH]c(=O)c3ccccc23)ccc1F)N1CCN(C(=O)C2CC2)CC1 [Olaparib] (first compound max 10 µM, 7x7, partner max 10 µM) | 0.543 | 0.262 | 0.142 | 0.451 | 0.222 | 0.356 | 0.446 | 0.342 | 0.38 | 0.188 | 0.337 | 0.234 | 0.387 | 0.16 | 0.0764 | 0.0499 | 0.251 | 0.218 | 0.278 | 0.53
6 | COc1cc2c(cc1OCCCCCOc1cc3c(cc1OC)C(=O)N1C=C(C)C[C@H]1C=N3)N=C[C@@H]1CC(C)=CN1C2=O [SG3199] + O=C(c1cc(Cc2n[nH]c(=O)c3ccccc23)ccc1F)N1CCN(C(=O)C2CC2)CC1 [Olaparib] (first compound max 0.001 µM, 7x7, partner max 10 µM) | 0.418 | 0.099 | 0.0059 | 0.478 | 0.0843 | 0.0857 | 0.245 | 0.258 | 0.173 | 0.173 | 0.188 | 0.209 | 0.223 | 0.195 | 0.0306 | 0.0808 | 0.324 | 0.0966 | 0.358 | 0.198
7 | C[C@@H](c1ccc2nccn2c1)n1nnc2ncc(-c3cnn(C)c3)nc21 [Savolitinib] + CC1(C)CCC(CN2CCN(c3ccc(C(=O)NS(=O)(=O)c4ccc(NCC5CCOCC5)c([N+](=O)[O-])c4)c(Oc4cnc5[nH]ccc5c4)c3)CC2)=C(c2ccc(Cl)cc2)C1 [Venetoclax] (first compound max 1 µM, 7x7, partner max 1 µM) | 0.127 | 0.352 | 0.2 | 0.118 | 0.186 | 0.186 | 0.109 | 0.213 | 0.261 | 0.381 | 0.146 | 0.142 | 0.449 | 0.116 | 0.247 | 0.137 | 0.306 | 0.0814 | 0.173 | 0.238
8 | Cc1nc(Nc2ncc(C(=O)Nc3c(C)cccc3Cl)s2)cc(N2CCN(CCO)CC2)n1 [Dasatinib] + CC(=O)Nc1cccc(-n2c(=O)n(C3CC3)c(=O)c3c(Nc4ccc(I)cc4F)n(C)c(=O)c(C)c32)c1 [Trametinib] (first compound max 2 µM, 7x7, partner max 1 µM) | 1 | 0.895 | 0.513 | 0.528 | 0.806 | 0.591 | 0.635 | 0.83 | 0.394 | 0.846 | 0.853 | 0.794 | 0.254 | 0.8 | 0.786 | 0.157 | 0.205 | 0.692 | 0.192 | 0.734
